Some test systems named below: U-251; MDA-N; NCI-H460; SF-539; NCI-H226; HOP-92; PC-3; SK-MEL-28; Hs-578T; OVCAR-8; SK-OV-3; OVCAR-5; TK-10; SNB-19; Malme-3M; K562; M14; A498; RPMI-8226; RXF 393.
Holding throughout (assay): NCI tumour cell line growth inhibition, 48 h

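Results reflect a 48-hour exposure of cells in 96-well plates to compound at five concentrations. The concentration for 50% growth inhibition is given as GI50.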 Activity calls are given as the source filed them. Cut-off read from the data, not from the text of the source: active = GI50 up to about 1.1 µM and inactive = higher.

On to `CCCCCCCCCCCCCCCCCCNc1ccn(C2OC(CO)C(OP(=O)(O)OCC(O)COP(=O)(O)OCC3OC(n4cc(F)c(NCCCCCCCCCCCCCCCCCC)nc4=O)CC3O)C2O)c(=O)n1` (configuration not stated), for which the GI50 in the experiment on U-251, in the experiment with MDA-N, in the experiment on NCI-H460, in the experiment with SF-539, in the experiment on NCI-H226 and with HOP-92 was > 50 µM (inactive) in each case. The GI50 with PC-3, with SK-MEL-28, in the experiment on Hs-578T, in the experiment on OVCAR-8, in the experiment on SK-OV-3 and with OVCAR-5 was > 50 µM (inactive) each time. The GI50 in the experiment on TK-10, in the experiment on SNB-19, in the experiment on Malme-3M, in the experiment with K562, with M14 and in the experiment with A498 was > 50 µM (inactive) throughout. In addition, the GI50 with RPMI-8226 is > 50 µM (inactive).

Turning to `C/C=C/[C@@]1(OC(=O)c2ccccc2)C[C@@H]2CCCC[C@@H]21`, the GI50 in the experiment on U-251 is 16.3 µM (inactive); in the experiment on MDA-N, 17.4 µM (inactive); in the experiment on NCI-H460, 18.4 µM (inactive); in the experiment with SF-539, 17.5 µM (inactive); in the experiment on NCI-H226, 16.5 µM (inactive); in the experiment on PC-3, 20 µM (inactive). For the same compound, the GI50 in the experiment on SK-MEL-28 was 17.9 µM (inactive); in the experiment on Hs-578T it was 13.8 µM (inactive); in the experiment on OVCAR-8 it was 18.5 µM (inactive); in the experiment with SK-OV-3, 18.5 µM (inactive); in the experiment with OVCAR-5 it was 17.1 µM (inactive); with TK-10, 15 µM (inactive). In addition, the GI50 with SNB-19 was 17.3 µM (inactive); with Malme-3M it was 17.5 µM (inactive); in the experiment with K562 it was 19.8 µM (inactive); in the experiment on M14 it was 17.9 µM (inactive); with RPMI-8226, 16.6 µM (inactive).

For `Cn1c2ccccc2c(=O)c2cccc(C(=O)NCC(=O)O)c21`, the GI50 was > 100 µM (inactive) in the experiment on U-251; > 100 µM (inactive) in the experiment on MDA-N; > 100 µM (inactive) in the experiment with NCI-H460; > 100 µM (inactive) in the experiment on SF-539; 85.9 µM (inactive) in the experiment on NCI-H226; > 100 µM (inactive) with PC-3. Also, the GI50 in the experiment on SK-MEL-28, in the experiment with Hs-578T, with OVCAR-8, with SK-OV-3, in the experiment with OVCAR-5 and with TK-10 was > 100 µM (inactive) in each case. Further, the GI50 in the experiment with SNB-19, in the experiment on Malme-3M, in the experiment on K562, in the experiment with M14 and in the experiment on RPMI-8226 was > 100 µM (inactive) in each case.

On to `COc1c(-c2ccc(F)cc2)oc2cc(O)cc(O)c2c1=O`, for which the GI50 with U-251 was 30.5 µM (inactive); in the experiment with MDA-N, 26.2 µM (inactive); with NCI-H460 it was 21.7 µM (inactive); in the experiment on SF-539 it was 19.8 µM (inactive); in the experiment with HOP-92, 35.6 µM (inactive); in the experiment with PC-3, 34 µM (inactive). In addition, the GI50 in the experiment with SK-MEL-28 is 46.9 µM (inactive); with Hs-578T, 35.2 µM (inactive); in the experiment with OVCAR-8 it was 28.7 µM (inactive); in the experiment on SK-OV-3, 30.5 µM (inactive); in the experiment with OVCAR-5, 25.5 µM (inactive); in the experiment with SNB-19 it was 23.9 µM (inactive). The GI50 with Malme-3M is 26.6 µM (inactive); in the experiment with K562, 38.9 µM (inactive); with M14 it was 34.8 µM (inactive); in the experiment with A498, 47.6 µM (inactive); in the experiment with RPMI-8226, 30.4 µM (inactive).

Regarding `O=C(OCCN=c1c2ccccc2ccc2ccccc12)c1ccc([N+](=O)[O-])cc1`, the GI50 in the experiment with U-251, in the experiment with MDA-N, with NCI-H460, in the experiment with SF-539, with NCI-H226 and with HOP-92 was > 100 µM (inactive) each time. The GI50 in the experiment with PC-3, in the experiment on SK-MEL-28, in the experiment on Hs-578T, in the experiment with OVCAR-8, in the experiment with SK-OV-3 and in the experiment on OVCAR-5 was > 100 µM (inactive) each time. For the same compound, the GI50 in the experiment with TK-10, in the experiment with RXF 393, with SNB-19, in the experiment on Malme-3M, in the experiment with K562 and in the experiment on M14 was > 100 µM (inactive) throughout. Further, the GI50 with RPMI-8226 was > 100 µM (inactive).

As to `Cc1ccc(S(=O)(=O)N/N=C2\C3CC4CC(C3)C2C4)cc1` (configuration not stated), the GI50 in the experiment on U-251, in the experiment on MDA-N, in the experiment with NCI-H460, with SF-539, in the experiment on NCI-H226 and in the experiment on PC-3 was > 100 µM (inactive) throughout. The GI50 in the experiment on SK-MEL-28, in the experiment on Hs-578T, in the experiment with OVCAR-8, in the experiment on SK-OV-3, in the experiment with OVCAR-5 and in the experiment on TK-10 was > 100 µM (inactive) in each case. In addition, the GI50 in the experiment with RXF 393, with SNB-19, with Malme-3M, in the experiment on K562, in the experiment on M14 and in the experiment on RPMI-8226 was > 100 µM (inactive) throughout.

As for `O=C(Oc1cncc(Cl)c1)c1cc2ccccc2sc1=O`, the GI50 was 49.8 µM (inactive) in the experiment with U-251; 78.2 µM (inactive) in the experiment with MDA-N; 82.8 µM (inactive) in the experiment with NCI-H460; 18.5 µM (inactive) in the experiment with SF-539; 22.4 µM (inactive) with NCI-H226; 71.4 µM (inactive) in the experiment with HOP-92. The GI50 in the experiment with PC-3 was 33 µM (inactive); with SK-MEL-28, 46.5 µM (inactive); with Hs-578T, 38.9 µM (inactive); in the experiment on OVCAR-8 it was > 100 µM (inactive); with SK-OV-3, > 100 µM (inactive); with OVCAR-5, > 100 µM (inactive). In addition, the GI50 is 76.7 µM (inactive) in the experiment on TK-10; 23 µM (inactive) with RXF 393; 92.5 µM (inactive) in the experiment on SNB-19; 34.2 µM (inactive) in the experiment on Malme-3M; 31.7 µM (inactive) with K562; 33.3 µM (inactive) with M14. Also, in the experiment on RPMI-8226, the GI50 is 21.1 µM (inactive).

For the compound `CC(=O)OCC1OC(n2c(C)c(/N=N/c3ccc(C)cc3)c(C)c(C#N)c2=S)C(OC(C)=O)C(OC(C)=O)C1OC(C)=O` (configuration not stated), the GI50 was > 100 µM (inactive) with U-251; > 100 µM (inactive) with MDA-N; > 100 µM (inactive) in the experiment with NCI-H460; 39.3 µM (inactive) in the experiment with SF-539; 0.895 µM (active) in the experiment on HOP-92; > 100 µM (inactive) in the experiment on PC-3. The GI50 was > 100 µM (inactive) in the experiment with SK-MEL-28; 23.5 µM (inactive) in the experiment on Hs-578T; > 100 µM (inactive) in the experiment with SK-OV-3; > 100 µM (inactive) with OVCAR-5; > 100 µM (inactive) with TK-10; > 100 µM (inactive) with RXF 393. Also, the GI50 in the experiment with SNB-19 was > 100 µM (inactive); in the experiment with Malme-3M, 79.3 µM (inactive); with K562, > 100 µM (inactive); in the experiment with M14 it was 48.6 µM (inactive); with RPMI-8226, > 100 µM (inactive).

As for `NS(=O)(=O)c1nnc(NSc2ccc([N+](=O)[O-])cc2)s1`, the GI50 in the experiment on U-251, with MDA-N, with NCI-H460, in the experiment with NCI-H226, in the experiment on HOP-92 and in the experiment with SK-MEL-28 was > 100 µM (inactive) in each case. Besides, the GI50 with Hs-578T, in the experiment on OVCAR-8, in the experiment on SK-OV-3, with OVCAR-5, in the experiment with TK-10 and in the experiment on RXF 393 was > 100 µM (inactive) in each case. For the same compound, the GI50 with SNB-19 is > 100 µM (inactive); in the experiment with Malme-3M, > 100 µM (inactive); in the experiment with K562, > 100 µM (inactive); in the experiment on M14 it was > 100 µM (inactive); in the experiment on A498, > 100 µM (inactive); in the experiment on RPMI-8226, 49.7 µM (inactive).

As to `CC12CCC3[C@@H](CC3(C)C)C(O)(CCC1=O)C2` (some centres not stated), the GI50 in the experiment on U-251, in the experiment on MDA-N, in the experiment with SF-539, with NCI-H226, with HOP-92 and in the experiment with PC-3 was > 100 µM (inactive) in each case. The GI50 in the experiment on SK-MEL-28, in the experiment with Hs-578T, in the experiment with OVCAR-8, in the experiment on SK-OV-3, with OVCAR-5 and in the experiment on TK-10 was > 100 µM (inactive) in each case. Besides, the GI50 in the experiment with Malme-3M, with K562, in the experiment on M14 and with RPMI-8226 was > 100 µM (inactive) in each case.

For `Nc1nc(N)c2cc(Sc3cccc(C(F)(F)F)c3)ccc2n1` [WR-159412], the GI50 in the experiment on U-251 is 0.771 µM (active); with MDA-N it was 0.371 µM (active); in the experiment on NCI-H460, 0.466 µM (active); in the experiment with SF-539, 3.17 µM (inactive); in the experiment with HOP-92, 2.94 µM (inactive); with SK-MEL-28, 4.46 µM (inactive). Also, the GI50 in the experiment on Hs-578T is 2.66 µM (inactive); with SK-OV-3 it was 9.08 µM (inactive); in the experiment with OVCAR-5, 13 µM (inactive); with TK-10, 10.1 µM (inactive); in the experiment on SNB-19 it was 4.81 µM (inactive); in the experiment with Malme-3M, 1.02 µM (active). In addition, the GI50 with K562 was 0.0883 µM (active); in the experiment with M14, 1.14 µM (inactive); with RPMI-8226, 1.93 µM (inactive).

Values taken from ChEMBL document CHEMBL1201862, “PubChem BioAssay data set” (2004).
